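These data come from cells grown in 96-well plates and exposed to compound for 48 hours at five concentrations. GI50 is the concentration that inhibits growth by half.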 The source made the active and inactive calls. Cut-off read from the data, not from the text of the source: active = GI50 up to about 1.1 µM and inactive = higher.
Columns and labels:
Test in all cases: DTP human tumour cell line panel, 48 h
UO-31 = tested on: UO-31
TK-10 = tested on: TK-10
HOP-92 = tested on: HOP-92
MDA-MB-435 = tested on: MDA-MB-435
RXF 393 = tested on: RXF 393
SNB-75 = tested on: SNB-75
UACC-62 = tested on: UACC-62
MDA-MB-231 = tested on: MDA-MB-231
SF-539 = tested on: SF-539
SK-MEL-5 = tested on: SK-MEL-5
CCRF-CEM = tested on: CCRF-CEM
MDA-N = tested on: MDA-N
EKVX = tested on: EKVX
SR = tested on: SR
SN12C = tested on: SN12C
BT-549 = tested on: BT-549
SK-OV-3 = tested on: SK-OV-3
Hs-578T = tested on: Hs-578T
OVCAR-3 = tested on: OVCAR-3
A549 = tested on: A549
ACHN = tested on: ACHN
SNB-19 = tested on: SNB-19
DU-145 = tested on: DU-145
U-251 = tested on: U-251
LOX IMVI = tested on: LOX IMVI
NCI/ADR-RES = tested on: NCI/ADR-RES
HCT-15 = tested on: HCT-15
UACC-257 = tested on: UACC-257
SW-620 = tested on: SW-620
OVCAR-8 = tested on: OVCAR-8
OVCAR-4 = tested on: OVCAR-4
NCI-H23 = tested on: NCI-H23
HOP-62 = tested on: HOP-62
M14 = tested on: M14
K562 = tested on: K562
PC-3 = tested on: PC-3
SF-268 = tested on: SF-268
A498 = tested on: A498
HT-29 = tested on: HT-29
HL-60 = tested on: HL-60
NCI-H460 = tested on: NCI-H460
NCI-H522 = tested on: NCI-H522
SF-295 = tested on: SF-295
HCT-116 = tested on: HCT-116
RPMI-8226 = tested on: RPMI-8226
Malme-3M = tested on: Malme-3M
SK-MEL-28 = tested on: SK-MEL-28
IGROV-1 = tested on: IGROV-1
786-0 = tested on: 786-0
COLO 205 = tested on: COLO 205
MCF7 = tested on: MCF7
NCI-H226 = tested on: NCI-H226
KM12 = tested on: KM12
SK-MEL-2 = tested on: SK-MEL-2
T47D = tested on: T47D
MOLT-4 = tested on: MOLT-4
OVCAR-5 = tested on: OVCAR-5
CAKI-1 = tested on: CAKI-1

COc1c(-c2nc3ccc(N4CCN(C)CC4)cc3[nH]2)cc(OC)c2[nH]c(COC(C)=O)nc12
GI50 (UO-31): 42.3 µM (inactive)
GI50 (TK-10): 71.4 µM (inactive)
GI50 (HOP-92): > 100 µM (inactive)
GI50 (MDA-MB-435): 37.8 µM (inactive)
GI50 (RXF 393): 11.8 µM (inactive)
GI50 (SNB-75): 9.4 µM (inactive)
GI50 (UACC-62): > 100 µM (inactive)
GI50 (MDA-MB-231): 34.2 µM (inactive)
GI50 (SF-539): 36.6 µM (inactive)
GI50 (SK-MEL-5): 94.6 µM (inactive)
GI50 (CCRF-CEM): 29.2 µM (inactive)
GI50 (MDA-N): 40.4 µM (inactive)
GI50 (EKVX): 98.4 µM (inactive)
GI50 (SR): 27.8 µM (inactive)
GI50 (SN12C): 41.4 µM (inactive)
GI50 (BT-549): > 100 µM (inactive)
GI50 (SK-OV-3): 63.7 µM (inactive)
GI50 (Hs-578T): > 100 µM (inactive)
GI50 (OVCAR-3): > 100 µM (inactive)
GI50 (A549): 62.1 µM (inactive)
GI50 (ACHN): 63.4 µM (inactive)
GI50 (SNB-19): 36 µM (inactive)
GI50 (DU-145): 26.1 µM (inactive)
GI50 (U-251): 48.3 µM (inactive)
GI50 (LOX IMVI): 30.8 µM (inactive)
GI50 (NCI/ADR-RES): > 100 µM (inactive)
GI50 (HCT-15): > 100 µM
GI50 (UACC-257): 53.5 µM (inactive)
GI50 (SW-620): 40.2 µM (inactive)
GI50 (OVCAR-8): 55.1 µM (inactive)
GI50 (OVCAR-4): 29.8 µM (inactive)
GI50 (NCI-H23): 65.9 µM (inactive)
GI50 (HOP-62): 67.1 µM (inactive)
GI50 (M14): 19.6 µM (inactive)
GI50 (K562): 56.6 µM (inactive)
GI50 (PC-3): 37.1 µM (inactive)
GI50 (SF-268): 94.8 µM (inactive)
GI50 (A498): > 100 µM (inactive)
GI50 (HT-29): 36.7 µM (inactive)
GI50 (HL-60): 59.8 µM (inactive)
GI50 (NCI-H460): 43.1 µM (inactive)
GI50 (NCI-H522): 48.9 µM (inactive)
GI50 (SF-295): 71.8 µM (inactive)
GI50 (HCT-116): 32.4 µM (inactive)
GI50 (RPMI-8226): 34.7 µM (inactive)
GI50 (Malme-3M): 25.1 µM (inactive)
GI50 (SK-MEL-28): > 100 µM (inactive)
GI50 (IGROV-1): > 100 µM (inactive)
GI50 (786-0): 36.6 µM (inactive)
GI50 (COLO 205): 50.1 µM (inactive)
GI50 (MCF7): 38.7 µM (inactive)
GI50 (NCI-H226): > 100 µM (inactive)
GI50 (KM12): 31.3 µM (inactive)
GI50 (SK-MEL-2): 45.9 µM (inactive)
GI50 (T47D): 24.8 µM (inactive)
GI50 (MOLT-4): 45 µM (inactive)
GI50 (OVCAR-5): > 100 µM (inactive)
GI50 (CAKI-1): > 100 µM (inactive)

O=[N+]([O-])c1nccn1CCCNc1c2ccccc2[n+]([O-])c2ccccc12
GI50 (UO-31): > 100 µM (inactive)
GI50 (TK-10): > 100 µM (inactive)
GI50 (HOP-92): 27.5 µM (inactive)
GI50 (MDA-MB-435): > 100 µM (inactive)
GI50 (RXF 393): > 100 µM (inactive)
GI50 (SNB-75): > 100 µM (inactive)
GI50 (UACC-62): > 100 µM (inactive)
GI50 (MDA-MB-231): > 100 µM (inactive)
GI50 (SF-539): > 100 µM (inactive)
GI50 (SK-MEL-5): > 100 µM (inactive)
GI50 (CCRF-CEM): > 100 µM (inactive)
GI50 (MDA-N): > 100 µM (inactive)
GI50 (EKVX): > 100 µM (inactive)
GI50 (SR): > 100 µM (inactive)
GI50 (SN12C): > 100 µM (inactive)
GI50 (BT-549): > 100 µM (inactive)
GI50 (SK-OV-3): > 100 µM (inactive)
GI50 (Hs-578T): > 100 µM (inactive)
GI50 (OVCAR-3): > 100 µM (inactive)
GI50 (A549): > 100 µM (inactive)
GI50 (ACHN): > 100 µM (inactive)
GI50 (DU-145): > 100 µM (inactive)
GI50 (U-251): > 100 µM (inactive)
GI50 (LOX IMVI): > 100 µM (inactive)
GI50 (NCI/ADR-RES): > 100 µM (inactive)
GI50 (HCT-15): > 100 µM
GI50 (UACC-257): > 100 µM (inactive)
GI50 (SW-620): > 100 µM (inactive)
GI50 (OVCAR-8): > 100 µM (inactive)
GI50 (OVCAR-4): 50.2 µM (inactive)
GI50 (NCI-H23): > 100 µM (inactive)
GI50 (HOP-62): > 100 µM (inactive)
GI50 (M14): > 100 µM (inactive)
GI50 (K562): > 100 µM (inactive)
GI50 (PC-3): > 100 µM (inactive)
GI50 (SF-268): > 100 µM (inactive)
GI50 (A498): > 100 µM (inactive)
GI50 (HT-29): 43.6 µM (inactive)
GI50 (HL-60): > 100 µM (inactive)
GI50 (NCI-H460): 51.3 µM (inactive)
GI50 (NCI-H522): > 100 µM (inactive)
GI50 (SF-295): > 100 µM (inactive)
GI50 (HCT-116): > 100 µM (inactive)
GI50 (RPMI-8226): > 100 µM (inactive)
GI50 (Malme-3M): > 100 µM (inactive)
GI50 (SK-MEL-28): > 100 µM (inactive)
GI50 (IGROV-1): 51.9 µM (inactive)
GI50 (786-0): > 100 µM (inactive)
GI50 (COLO 205): 18.2 µM (inactive)
GI50 (MCF7): > 100 µM (inactive)
GI50 (NCI-H226): 38.6 µM (inactive)
GI50 (KM12): > 100 µM (inactive)
GI50 (SK-MEL-2): 88.5 µM (inactive)
GI50 (T47D): > 100 µM (inactive)
GI50 (MOLT-4): > 100 µM (inactive)
GI50 (OVCAR-5): > 100 µM (inactive)
GI50 (CAKI-1): > 100 µM (inactive)

Nc1nc(Nc2ccccc2)sc1C(=O)c1ccco1
GI50 (UO-31): 12.1 µM (inactive)
GI50 (TK-10): 14.2 µM (inactive)
GI50 (HOP-92): 35.6 µM (inactive)
GI50 (MDA-MB-435): 16.4 µM (inactive)
GI50 (RXF 393): 14.2 µM (inactive)
GI50 (SNB-75): 15.1 µM (inactive)
GI50 (UACC-62): 20.8 µM (inactive)
GI50 (MDA-MB-231): 34.7 µM (inactive)
GI50 (SF-539): 15.7 µM (inactive)
GI50 (SK-MEL-5): 11.1 µM (inactive)
GI50 (CCRF-CEM): 3.62 µM (inactive)
GI50 (MDA-N): 17.2 µM (inactive)
GI50 (EKVX): 15.3 µM (inactive)
GI50 (SR): 5.97 µM (inactive)
GI50 (SN12C): 17.7 µM (inactive)
GI50 (BT-549): 23.2 µM (inactive)
GI50 (SK-OV-3): 28.6 µM (inactive)
GI50 (Hs-578T): 13.3 µM (inactive)
GI50 (OVCAR-3): 5.69 µM (inactive)
GI50 (A549): 17.1 µM (inactive)
GI50 (ACHN): 19.2 µM (inactive)
GI50 (SNB-19): 19.9 µM (inactive)
GI50 (DU-145): 14.7 µM (inactive)
GI50 (U-251): 22.7 µM (inactive)
GI50 (LOX IMVI): 15.9 µM (inactive)
GI50 (NCI/ADR-RES): 23.9 µM (inactive)
GI50 (HCT-15): 12.2 µM
GI50 (UACC-257): 30.8 µM (inactive)
GI50 (SW-620): 21.2 µM (inactive)
GI50 (OVCAR-4): 19.9 µM (inactive)
GI50 (NCI-H23): 14.6 µM (inactive)
GI50 (HOP-62): 27.5 µM (inactive)
GI50 (M14): 20.9 µM (inactive)
GI50 (K562): 8.55 µM (inactive)
GI50 (PC-3): 22.6 µM (inactive)
GI50 (SF-268): 26.7 µM (inactive)
GI50 (A498): 17.8 µM (inactive)
GI50 (HT-29): 14.4 µM (inactive)
GI50 (HL-60): 14.1 µM (inactive)
GI50 (NCI-H460): 12.8 µM (inactive)
GI50 (HCT-116): 12.8 µM (inactive)
GI50 (RPMI-8226): 16.1 µM (inactive)
GI50 (Malme-3M): 26.9 µM (inactive)
GI50 (SK-MEL-28): 32.8 µM (inactive)
GI50 (IGROV-1): 15.6 µM (inactive)
GI50 (786-0): 12.7 µM (inactive)
GI50 (COLO 205): 13.2 µM (inactive)
GI50 (MCF7): 7.74 µM (inactive)
GI50 (NCI-H226): 21.3 µM (inactive)
GI50 (KM12): 11 µM (inactive)
GI50 (SK-MEL-2): 15.2 µM (inactive)
GI50 (T47D): 14.9 µM (inactive)
GI50 (MOLT-4): 13 µM (inactive)
GI50 (OVCAR-5): 34 µM (inactive)

Source: ChEMBL document CHEMBL1201862, “PubChem BioAssay data set” (2004)
